Series [1] in a line: Clinical plasma pharmacokinetics (background). Format: in vivo. Particulars: estimated from Cmax and half-life.
Series [2] has as its system Zebrafish embryo. Description: Zebrafish embryo drug toxicity assay. The class given is in vivo. Particulars: embryos 48 hpf, 34°C, imaged at 72 hpf and 120 hpf; APR-246 range 10-200 µM, Vorinostat range 2.5-100 µM. The procedure: The toxicity of the compounds was assessed before performing in vivo experiments and a Maximum Tolerated Dose (MTD) was determined. Embryos (48 hpf) were transferred to 48-well uncoated plates (Corning) containing different concentrations of the compounds and a solvent control. The stock solution of the compounds was further dissolved in E3 buffer supplemented with 0.2mM 1-phenyl-2- thiourea (PTU, Sigma) in order to reach the desired concentrations. Three embryos were tested per concentration or solvent control. Embryos were kept at 34°C during the experiment and were imaged at 72 hpf and 120 hpf using a stereo microscope (Leica). The embryos were assessed for signs of toxicity, like death, morphology changes (curvature of body, edema) and behavioral changes. APR-246 concentration range tested: 10-200 µM, MTD: 50µM; solvent control: DMSO (0.2% and 0.5%); Vorinostat concentration range tested: 2.5-100 µM, no toxicity detected (MTD: 100µM); solvent control: DMSO (0.1%).

Series [3] concerns p53 target genes CDKN1A, PUMA and GADD45A. Description: Real-time PCR of p53 pathway activation in IMR-32. Format: cell-based. Particulars: IMR-32 (TP53-wt), APR-246 added to doxorubicin vs doxorubicin only, 24 h. The protocol: (§1) Real-time PCR was performed as described previously (Fischer et al., J Mol Diagn 2005, 7, 89-96; Witt et al., Blood 2003, 101, 2001-2007). The following primers were purchased from ThermoFisher Scientific: CDKN1A (p21^WAF1/^CIP1, forward: 5'-TGGAGACTCTCAGGGTCGAAA-3'(SEQ ID NO:1), reverse: 5'-GGCGTTTGGAGTGGTAGAAATC-3'(SEQ ID NO.2)), HPRT (forward: 5'-TGACACTGGCAAAACAATGCA-3'(SEQ ID NO:3), reverse: 5'-GGTCCTTTTCACCAGCAAGCT-3'(SEQ ID NO:4)), SDHA (forward: 5'-TGGGAACAAGAGGGCATCTG-3'(SEQ ID NO:5), reverse: 5'-CCACCACTGCATCAAATTCATG-3'(SEQ ID NO:6)), and PUMA (forward: 5'-CCTGGAGGGTCCTGTACAATCT-3'(SEQ ID NO:7), reverse: 5'-GCACCTAATTGGGCTCCATCT-3'(SEQ ID NO:8)). The primer for GADD45A was purchased from Qiagen, Hilden, Germany (QT00014084). The delta-delta-Ct method was used to calculate the relative expression, and normalization was performed to neuroblastoma specific housekeeping genes SDHA and HPRT (Fischer et al., J Mol Diagn 2005, 7, 89-96).
(Quantitative PCR measures a nucleic acid by following its amplification.)

Series [4] relates to vincristine resistant SK-N-BE(2)-C. Description: Metabolic activity assay (CellTiter-Glo), vincristine resistant cells. Format: cell-based. Particulars: vincristine resistant vs non-resistant control SK-N-BE(2)-C; 72 h, APR-246 0 - 30 µM. The protocol: Vincristine resistant and non-resistant SK-N-BE(2)-C (passage 30 to 45, kindly provided by M. Michaelis, University of Kent, and J. Cinatl, Goethe University, Frankfurt am Main) were cultured using IMDM with L-Glutamine, 2mM HEPES (Gibco) supplemented with 10% FCS; for the resistant cells, 20 ng/ml vincristine was added to the medium. The cells were made to be resistant to vincristine-treatment through long-term cultivation in a vincristine containing medium.
If not otherwise declared, cells were precultured for 72 h at a density of 2,000,000 cells per T75 flask (exceptions: Kelly, NB1 and IMR-32 4,000,000 per T75 flask, SJ-GBM2 1,000,000 per T75 flask). Cells were detached with trypsin-EDTA (ThermoFisher Scientific) and seeded in 96-well plates (Greiner, Microplate, 96-Well, PS, F-bottom µCLEAR®, CELLSTAR®) in 100 µl medium per well at a density of 5,000 (KNS-42, SJ-GBM2, SF188, SK-N-BE(2)-C) or 10,000 (IMR-32, NB1, Kelly) cells/well. HDAC-inhibitor screenings were performed accordingly in 384-well plates (Greiner, Microplate, 384-Well, PS, F-bottom µCLEAR®, CELLSTAR®) in 20 µl medium per well at a density of 1,250 (SK-N-BE(2)-C, SK-N-AS) or 2,500 (IMR-32) cells/well. […] Cell viability was quantified using CellTiter-Glo® 2.0 kit (Promega, Madison, USA). […] Bioluminescence was quantified on an OPTIMA plate reader (BMG Labtech, Ortenberg, Germany).
(Cellular ATP, detected with luciferase, serves as a proxy for viable cell number.)

Series [5] relates to IMR-32 cells. Description: Flow cytometry: ROS (DCFDA) and lipid peroxidation (BODIPY). The class given is cell-based. To be noted: IMR-32, 50 µM APR-246 for 5 h vs solvent control (DMSO), FACS. The procedure: Flow Cytometry was applied to analyze the lipid peroxidation (BODIPY staining) and to detect ROS (DCFDA staining). BODIPY 581/591 C11 Lipid peroxidation sensor staining (stock concentration: 20 mM in dimethylformamide, Invitrogen, Thermo Fisher Scientific) was used at a working concentration of 20 µM, and was diluted with RPMI without phenol red (Gibco). After inspection, the cells were detached, centrifuged and stained for 20 minutes at 37°C in a 500 µl staining solution. After centrifugation, cells were resuspended in 300 µl RPMI without phenol red, supplemented with 10% FCS. Fluorescence was measured in a FACSCanto II (BD) with 488 nm excitation and detected using a 502 nm longpass and 530/30 nm bandpass filter. Data were analyzed using FlowJo 10.x.
ROS detection was performed as previously described (Oehme et al., Proc Natl Acad Sci U S A 2013, 110, E2592-2601).
(In general: In flow cytometry, cells or beads pass a laser one at a time.)

Series [6] deals with p53 target gene expression (CDKN1A and GADD45A). Description: Real-time PCR of p53 pathway activation in SJ-GBM2. Format: cell-based. Particulars: APR-246 treatment. The protocol: as §1
The conditions of series [7]: clinical; cited from earlier work.
Series [8] deals with p53 target gene expression. Description: Real-time PCR of p53 pathway activation in SK-N-BE(2)-C. To be noted: SK-N-BE(2)-C (C135F), APR-246 added to doxorubicin, 24 h. Format: cell-based. The procedure: as §1
Series [9] concerns p53 target gene expression (CDKN1A and GADD45A). Description: Real-time PCR of p53 pathway activation in SF188. The class given is cell-based. Particulars: APR-246 treatment. The procedure:
as §1

Regarding `COCC1(CO)C(=O)C2CCN1CC2` (stereo not shown) [APR-246, 2-(Hydroxymethyl)-2-(methoxymethyl)-1-azabicyclo[2.2.2]octan-3-one], the “estimated trough plasma concentration” value in series [1] was 15 to 20 µM. The “Maximum Tolerated Dose (MTD)” value in [2] turned out to be 50 µM. Besides, the “p53 target gene expression” value in series [3] is “did not increase target gene expression”. The “APR-246 sensitivity (metabolic activity)” value in series [4] is reported as “increased APR-246 sensitivity”. In addition, in series [5], the “ROS formation and lipid peroxidation” value is “increased ROS formation and lipid peroxidation”. Further, the “p53 target gene expression (CDKN1A and GADD45A)” value in [6] and in series [9] was “no reactivation” in each case. The half-life entry in series [7] is “four to five”. Further, the maximum plasma concentration entry in series [7] is “approximately 280 µM”. In addition, the “p53 target gene induction” value in series [8] was “did not improve p53 target gene induction”.

Values taken from EP4134671A1, “METHYLENE QUINUCLIDINONE COMPANION DIAGNOSTICS” (Deutsches Krebsforschungszentrum Stiftung des öffentlichen …, priority 2021, dated 2023).
